Experimental data reported in patent US12098395B2, “Polypeptide with function of targeting recognition of immune cells and application thereof” (Keyangle Life Technology Co., Ltd., priority 2018, dated 2024).
No end group written: not given here. code X = not defined here

Columns and labels:
[1] = test system: mouse macrophage cell line RAW264.7; test: In vitro fluorescence labeled staining of a mouse macrophage cell line; type: cell-based; conditions: 10 μM probe, 1 h incubation
Description: Culture the mouse macrophage cell line RAW264.7 in a 96-well plate, wash the wells once with 1×PBS buffer or a serum-free DMEM incomplete medium, remove the washing liquid, add EK24 solution of 10 μM which had been diluted with 100 μL of serum-free DMEM incomplete medium, and incubate in a cell culture incubator for 1 h. After that, wash the wells twice with 1×PBS buffer or the serum-free DMEM incomplete medium. Then, add DMEM complete medium containing 10% FBS and 1% streptomycin-penicillin, and double-stain the cells using nuclear dye Nucblue, and observe under EVOS® FL Auto fluorescence microscope (Life Technologies, light source 10%, exposure 200 ms, gain 5).

[2] = test system: mouse peritoneal macrophages; test: In vivo fluorescent labeling of macrophages in a mouse abdominal cavity; parameters: species or system Kunming mice; conditions: for recognition of macrophages in vivo: conclusion from Table 1, mouse peritoneal macrophages; for fluorescent labeling of macrophages extracted from the mouse abdominal cavity: labeled in vivo by intraperitoneal injection, cells extracted after 4 hours, Nucblue double-stain
Description: Dilute 300 μL of 50 μM EK24 fluorescent probe solution with serum-free DMEM incomplete medium to obtain 1 mL of solution, then inject into the abdominal cavity of 5-8 weeks old Kunming mice. After 4 hours, inject 5 mL of 1×PBS and massage. After 10 minutes, sacrifice the mice by cervical vertebra dislocation. Cut the abdominal cavity skin of the mice, pierce the abdominal wall muscle by a syringe, and extract the fluid in the abdominal cavity of the mice. Centrifuge the extracted peritoneal fluid at 1000 rpm for 5 min, wash twice with 1×PBS. Add appropriate amount of cells to a 96-well plate and double-stain with a nuclear dye Nucblue (Invitrogen). Observe under fluorescence microscope (light source 10%, exposure 200 ms, gain 5) after the suspended cells were settled down at the bottom of the plate.
Table 1 lists probes, which contain the polypeptide fragments from the C-terminal fragments of Triokinases/FMN cyclases of different species and were prepared by a similar process as described in Examples 1 and 2, and in vivo imaging results of mouse peritoneal macrophages using these probes.

[3] = test system: cultured macrophages isolated from mouse peritoneal cavity; test: In vitro fluorescent labeling of cultured macrophages isolated from mouse peritoneal cavity, co-staining with F4/80 antibody; type: cell-based; conditions: 10 μM EK24 premixed with F4/80 antibody, 1 h at 37° C.
Description: Inject 5 mL of serum-free DMEM incomplete medium into the abdominal cavity of 5 to 8 weeks old mice, massage the abdominal cavity gently for 10 min, and sacrifice the mice by cervical vertebra dislocation. Extract the fluid from the abdominal cavity gently with a syringe, inject into a 5 mL centrifuge tube and centrifuge at 1000 rpm for 5 min, remove the supernatant, and resuspend the collected ex-vivo cells in DMEM/F12 medium containing 10% FBS, then add into a 96-well plate for culture. Generally, if cells are taken intraperitoneally for in vitro culture, macrophages would tend to adhere to bottom of the well, and other cells would be washed off. The cells were cultured for more than 2 days until the cells attached the bottom firmly. At this time, the cells remaining in the wells were basically macrophages. Select two wells, one as a control and the other as an experimental well. The cells of the control were nuclear stained with Nucblue. The experimental well was added with a premix of AlexaFluor®488 anti-mouse F4/80 antibody (Biolegend) and EK24 fluorescent probe, and then incubated for 1 h at 37° C. The premix contained 10 μM of EK24 solution and 2 μL of Alexa Fluor®488 anti-mouse F4/80 antibody diluted with 100 μL of serum-free DMEM incomplete medium. […] The cells were observed under a fluorescence microscope (20×objective lens, light source 10%, exposure 200 ms, gain 5).

[4] = test system: primary macrophages from rat peritoneal cavity; test: In vitro fluorescent labeling of primary macrophages from rat peritoneal cavity; type: cell-based, SD rats; conditions: cultured more than 2 days
Description: With the same process as in Example 5, extract cells from the abdominal cavity of 5 to 8 weeks old SD rats using 20 mL serum-free DMEM incomplete medium and culture the cells in a 96-well plate. After culturing for more than 2 days, until the cells attached the bottom firmly, a well was selected and added with EK24 fluorescent probe for incubation. Then the cells were observed under a fluorescence microscope (20×, light source 10%, exposure 200 ms, gain 5).

[5] = test system: monocyte precursors from rat bone marrow; test: In vitro fluorescent labeling of rat primary monocyte precursors; type: cell-based
Text: With a similar process to Example 7, mononuclear cell precursors from rat femoral bone marrow were taken and cultured, and then labeled by using EK24 fluorescent probe and Nucblue. Then the cells were observed under a fluorescence microscope (20×, light source 10%, exposure 200 ms, gain 5).

[6] = test system: bone marrow monocyte precursors of New Zealand White Rabbit; test: In vitro fluorescent labeling of primary monocyte precursors of New Zealand White Rabbit; type: cell-based
Text: With a similar process to Example 7, bone marrow monocyte precursors of New Zealand White Rabbit were taken and cultured, then labeled by using EK24 fluorescent probe and Nucblue. Then the cells were observed under a fluorescence microscope (20×, light source 10%, exposure 200 ms, gain 5).

[7] = test system: cultured peritoneal macrophages and mesenteric digestive cells; test: Selective labeling of cultured peritoneal macrophages among cells released from enzyme-digested mesenterium; type: cell-based, Kunming mice; conditions: peritoneal cells and trypsin-digested mesenteries cultured 3 days
Description: Take 5 to 8 week-old Kunming mice, inject intraperitoneally with 5 mL of serum-free DMEM incomplete medium. After 1 hour, sacrifice the mice by cervical vertebra dislocation. Make an incision on the skin of abdominal cavity, pierce the abdominal wall muscle using a syringe, and extract the fluid in the abdominal cavity of the mice. Wash twice with 1×PBS, collect peritoneal cells by centrifugation. Also take the mesenteries of the Kunming mice and purge twice with 1×PBS in centrifuge tubes. Incubate the obtained peritoneal cells and mesenteries in 0.25% trypsin solution and digest for 30 minutes. Enrich the cells by centrifugation, and then culture for 3 days in a 96-well plate using F12/DMEM culture solution containing 10% FBS and 1% streptomycin-penicillin. Referring to Example 5, label with the EK24 fluorescent probe and Nucblue. Then the cells were observed under a fluorescence microscope (20×, light source 10%, exposure 200 ms, gain 5).

[8] = test system: macrophages on mouse abdominal wall; test: In vivo fluorescent labeling of macrophages on mouse abdominal wall with CD68 antibody co-staining; conditions: in vivo injection, abdominal wall muscle removed
Description: Referring to Example 4, using the same drug injection process, inject EK24, and FITC anti-mouse CD68 antibody (Biolegend) which was diluted with PBS from 2 μL to 500 μL. Remove mouse abdominal wall muscle for Nucblue double-staining and then observing under a fluorescence microscope (20×, light source 50%, exposure 200 ms, gain 5).

[9] = test system: monocyte precursors from mouse bone marrow; test: Fluorescence labeling of mouse primary monocyte precursors at different incubation times; type: cell-based; conditions: incubating only for 10 min
Description: Referring to Example 7, using the same treatment process, the monocyte precursors from mouse bone marrow were obtained. After culturing for 6 days, the cultured cells were labeled with […] fluorescent probe over different incubation times. Then the cells were observed under a fluorescence microscope (20×, light source 20%, exposure 200 ms, gain 5).
Nucblue was further used for nuclear staining. In each of FIGS. 18A, 18B, 18C, and 18D, i) is an image labeled with the […] fluorescent probe (shown in red in the original fluorescence color image), and ii) is an image obtained by nuclear staining with Nucblue (shown in blue in the original fluorescence color image), and iii) is a merged image of i) and ii).

Row | Substance | recognition of macrophages in vivo [2] | fluorescent labeling of macrophages extracted from the mouse abdominal cavity [2] | further results
1 | EQPDPGAVAAAAILRAILEVLQS-Y (not fully specified (C-terminus)) [EK24, Human/rhesus Triokinase/FMN cyclase C-terminal peptide; Y is lysine plus rhodamine fluorescent labeling group on the lysine side chain] | can effectively recognize macrophages in vivo | can be labeled | fluorescent labeling of RAW264.7 cells [1]: can be labeled; co-localization of probe label with F4/80 antibody label [3]: co-localized on the same cells; labeling of in vitro cultured primary macrophages from rat peritoneal cavity [4]: can effectively label; labeling of monocyte precursors from rat bone marrow mesenchyme [5]: capable of labeling; labeling of monocyte precursors from New Zealand White Rabbit bone marrow mesenchyme [6]: capable of labeling; staining of macrophages in mixed culture [7]: only stains macrophages; staining of non-macrophages in mixed culture [7]: not stain non-macrophages; labeling of macrophages on mouse abdominal wall [8]: can be labeled; labeling of other cells of mouse abdominal wall [8]: cannot be labeled
2 | LEQPDPGAVAAAAILRAILE-Y (LEQPDPGAVAAAAILRAILEY; also: C-terminal reporter Y, nature not defined) [LEK21, Human Triokinase/FMN cyclase C-terminal peptide probe, Y = reporter or cysteine/lysine + reporter] | can effectively recognize macrophages in vivo | can be labeled | 
3 | LQPDPGAVAAAAVLRAVLEGLQG-Y (LQPDPGAVAAAAVLRAVLEGLQGY; also: C-terminal reporter Y, nature not defined) [LK24, Chicken Triokinase/FMN cyclase C-terminal peptide probe, Y = reporter or cysteine/lysine + reporter] | can effectively recognize macrophages in vivo | can be labeled | 
4 | X-DQPDPGAVAAAAIFRAILEVLQTKAA ({code X}-DQPDPGAVAAAAIFRAILEVLQTKAA; reading uncertain; also: N-terminal reporter X, nature not defined) [r-KA27, Rat Triokinase/FMN cyclase C-terminal peptide probe, X = reporter or cysteine/lysine + reporter] | can effectively recognize macrophages in vivo | can be labeled | 
5 | X-DQPDPGAVAAAAILRAILEVLQSQGA ({code X}-DQPDPGAVAAAAILRAILEVLQSQGA; reading uncertain; also: N-terminal reporter X, nature not defined) [b-KA27, Pig and cattle Triokinase/FMN cyclase C-terminal peptide probe, X = reporter or cysteine/lysine + reporter] | can effectively recognize macrophages in vivo | can be labeled | 
6 | X-DQPDPGAVAAAAILRTILEVLQSQGV ({code X}-DQPDPGAVAAAAILRTILEVLQSQGV; reading uncertain; also: N-terminal reporter X, nature not defined) [d-KV27, Dog Triokinase/FMN cyclase C-terminal peptide probe, X = reporter or cysteine/lysine + reporter] | can effectively recognize macrophages in vivo | can be labeled | 
7 | X-EDQPDPGAVAAAAILRAILEVLQS ({code X}-EDQPDPGAVAAAAILRAILEVLQS; reading uncertain; also: N-terminal reporter X, nature not defined, printed as X-EDQPDPGAVAAAAILRAILEVLQS) [KS24, Human Triokinase/FMN cyclase C-terminal peptide probe, X = reporter or cysteine/lysine + reporter (rhodamine or FITC)] | can effectively recognize macrophages in vivo | can be labeled | fluorescence detection with microscope [9]: can be even detected
8 | X-KNMEAGAGRASYISSARLEQPDPGAVAAAAILRAIL ({code X}-KNMEAGAGRASYISSARLEQPDPGAVAAAAILRAIL; reading uncertain; also: N-terminal reporter X, nature not defined) [KnNL36, Human Triokinase/FMN cyclase C-terminal peptide probe, X = reporter or cysteine/lysine + reporter] | can effectively recognize macrophages in vivo | can be labeled | 
9 | X-TKNMEAGAGRASYISSARLEQPDPGAVAAAAILRAILEVLQS ({code X}-TKNMEAGAGRASYISSARLEQPDPGAVAAAAILRAILEVLQS; reading uncertain; also: N-terminal reporter X, nature not defined) [TS42, Human Triokinase/FMN cyclase C-terminal peptide probe, X = reporter or cysteine/lysine + reporter] | can effectively recognize macrophages in vivo | can be labeled | 
